Measurements from US12083165B2, “Thymosin alpha 1 for use in treatment of cystic fibrosis” (SciClone Pharmaceuticals International (SG) PTE. LTD., priority 2015, dated 2024).

Legend:
[1] = target: ΔF508 CFTR (Homo sapiens, UniProt P13569, DEL508-508); experiment: Chloride permeability by SPQ fluorescence assay upon forskolin stimulation, HBE cells from CF patients; format: cell-based
Protocol: Cells. Cell Lines and Cell Culture—Human bronchial epithelial (HBE) cells, homozygous for the […] mutation and its isogenic wild-type were obtained from lung transplants (CF patients) or lung resections (non-CF patients) (kindly provided by L J Galietta within the Italian Cystic Fibrosis Foundation). Cells were maintained at 37° C. in a humidified incubator in an atmosphere containing 5% CO2, and the experiments were done 5 days after plating (21, 22). Stable lentiviral-based transduction of the parental CFBE41o− cells (ΔF508/ΔF508), originally immortalized and characterized by Dr. D. Gruenert and co-workers (32) with either WT-CFTR or ΔF508-CFTR, was performed by Tranzyme, Inc. (Birmingham, AL). […]
The activity of Tα1, either alone or in combination with ivacaftor, has been comparatively assessed with that of lumacaftor on CFBE41o− cells expressing ΔF508 CFTR and on HBE cells from CF patients. To this purpose, cells were treated with Tα1 (100 ng/ml), VX-770 (1 μM) or VX-809 (3 μM) alone or in combination for 24 hours and assessed for CFTR protein expression and function. […] In terms of ion channel activity, Tα1, either alone or in combination with ivacaftor, increased the chloride permeability of ΔF508 CFTR cells between 60 to 70% relative to control (considering WT control as 100% reference value)(B, assessed by a fluorescence assay upon stimulation with fosforkolin, Fsk). […]

[2] = tested on: A. fumigatus-infected C57BL/6 and Cftr−/− mice; experiment: Th cytokines in lungs and transcription factors in draining thoracic lymph nodes (ELISA or RT-PCR); format: in vivo
Protocol: Mice. Wild-type (WT) inbred C57BL6 mice, 8 to 12 weeks old, were purchased from Charles River Breeding Laboratories (Calco, Italy). Genetically engineered homozygote Cftr^−/− mice (33) were bred at the Cystic Fibrosis core animal facility at San Raffaele Hospital, Milan, Italy. Experiments were performed following protocols approved by the institutional animal committee and in accordance with European Economic Community Council Directive as well as institutional animal care and use guidelines.
Infection and treatments. Mice were anesthetized by i.p. injection of 2.5% avertin (Sigma Chemical Co, St. Louis, MO) before intranasal instillation of 2×10^7 A. fumigatus (Af293) resting conidia/20 μl saline. For histology, paraffin-embedded tissue were stained with Periodic acid-Schiff (PAS), and BAL fluid collection was done as described (21, 22). Treatments were as follow: Tα1 and the scrambled polypeptide were supplied as purified (the endotoxin levels were <0.03 pg/ml, by a standard limulus lysate assay) sterile, lyophilized, acetylated polypeptide. The sequences were as follows: Ac-[…]O (Tα1) (SEQ ID NO:1) and Ac-[…]OH (scrambled peptide) (SEQ ID NO:2). The lyophilized powders were reconstituted in sterile water and 200 μg/kg/i.p. were given daily for 6 consecutive days beginning the day of the infection.
Reverse transcriptase-polymerase chain reaction (RT-PCR). Total RNA extraction and synthesis and PCR of cDNA were done on total lung cells as described (21, 22). Amplification efficiencies were validated and normalized against Gapdh. The thermal profile for SYBR Green real-time PCR was at 95° C. for 3 min, followed by 40 cycles of denaturation for 30 s at 95° C. and an annealing/extension step of 30 s at 60° C. Each data point was examined for integrity by analysis of the amplification plot. The mRNA-normalized data were expressed as relative mRNA in treated cells compared to that of unstimulated cells.
Cytokine determination by ELISA. Cytokine levels in lung homogenates from treated and untreated mice were determined by cytokine-specific ELISA (R&D Systems, Inc. Space Import-Export srl, Milan, Italy) as described (21, 22)
The inflammatory Th17 pathway is involved in CF lung inflammation (21, 22, 43) while the Th2 pathway is associated with CF fungal allergy (44). For the assessment of the effects of Tα1 on Th cell activation, levels of Th cytokines in the lungs and of the corresponding transcription factors in the draining thoracic lymph nodes have been measured in C57BL/6 and Cftr^−/− mice infected and treated with Tα1 as above. Tα1 decreased Th17 (decreased levels of IL-17A and of the Th17 transcription factor Rorc), Th2 (low IL-4 and Gata3) cell activation while promoting both Th1 (increased IFN-γ and Tbet) and Treg (increased IL-10 and Foxp3) cell activity. […] The cytokine levels were assessed in lung homogenates (by ELISA or RT-PCR) and the expression of the corresponding Th transcription factors (by RT-PCR) in the draining thoracic lymph nodes. The results shown represent pooled data from two experiments. n.d. not done. *P<0.05; **P<0.01; ***P<0.001.

[3] = draining thoracic lymph nodes, RT-PCR

ΔF508 CFTR, sequence (P13569 with tags, fused parts or gaps DEL508-508): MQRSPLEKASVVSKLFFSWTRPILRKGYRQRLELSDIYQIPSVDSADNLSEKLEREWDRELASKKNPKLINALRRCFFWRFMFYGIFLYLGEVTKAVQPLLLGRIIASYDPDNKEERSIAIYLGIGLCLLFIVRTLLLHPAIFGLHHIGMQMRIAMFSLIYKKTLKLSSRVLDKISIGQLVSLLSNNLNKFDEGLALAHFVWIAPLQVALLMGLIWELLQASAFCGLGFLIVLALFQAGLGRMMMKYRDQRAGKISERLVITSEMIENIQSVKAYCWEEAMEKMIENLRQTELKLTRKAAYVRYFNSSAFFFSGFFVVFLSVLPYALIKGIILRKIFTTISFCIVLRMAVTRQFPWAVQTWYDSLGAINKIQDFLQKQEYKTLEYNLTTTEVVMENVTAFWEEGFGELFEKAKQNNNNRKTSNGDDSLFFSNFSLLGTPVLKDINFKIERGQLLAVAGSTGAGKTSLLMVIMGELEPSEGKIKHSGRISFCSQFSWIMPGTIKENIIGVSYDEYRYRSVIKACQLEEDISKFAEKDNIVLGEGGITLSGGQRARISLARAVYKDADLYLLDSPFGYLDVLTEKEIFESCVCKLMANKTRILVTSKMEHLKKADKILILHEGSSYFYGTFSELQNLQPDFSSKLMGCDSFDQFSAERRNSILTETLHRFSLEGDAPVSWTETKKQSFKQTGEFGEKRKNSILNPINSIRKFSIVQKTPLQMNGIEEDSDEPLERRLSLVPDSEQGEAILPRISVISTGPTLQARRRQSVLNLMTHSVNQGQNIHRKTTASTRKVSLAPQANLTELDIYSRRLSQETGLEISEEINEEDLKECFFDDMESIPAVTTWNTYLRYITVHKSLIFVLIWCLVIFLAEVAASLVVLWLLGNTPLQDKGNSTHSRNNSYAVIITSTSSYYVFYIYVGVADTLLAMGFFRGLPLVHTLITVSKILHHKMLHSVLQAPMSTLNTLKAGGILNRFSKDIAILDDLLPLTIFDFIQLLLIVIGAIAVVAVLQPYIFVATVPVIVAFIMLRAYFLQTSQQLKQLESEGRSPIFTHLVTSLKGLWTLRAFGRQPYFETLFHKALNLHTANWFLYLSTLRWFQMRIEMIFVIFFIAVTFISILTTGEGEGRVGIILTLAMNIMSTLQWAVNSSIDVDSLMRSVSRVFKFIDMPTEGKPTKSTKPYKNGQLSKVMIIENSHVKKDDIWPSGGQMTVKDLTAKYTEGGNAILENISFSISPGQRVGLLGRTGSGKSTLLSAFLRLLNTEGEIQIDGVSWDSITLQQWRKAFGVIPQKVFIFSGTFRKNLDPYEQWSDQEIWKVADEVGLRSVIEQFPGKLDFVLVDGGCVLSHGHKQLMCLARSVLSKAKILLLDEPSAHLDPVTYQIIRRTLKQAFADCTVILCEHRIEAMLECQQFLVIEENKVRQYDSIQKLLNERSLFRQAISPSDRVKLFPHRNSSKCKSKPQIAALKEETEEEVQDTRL

Substance: Ac-Ser-Asp-Ala-Ala-Val-Asp-Thr-Ser-Ser-Glu-Ile-Thr-Thr-Lys-Asp-Leu-Lys-Glu-Lys-Lys-Glu-Val-Val-Glu-Glu-Ala-Glu-Asn-O (Ac-SDAAVDTSSEITTKDLKEKKEVVEEAEN-OH; not fully specified; printed as Ac-Ser-Asp-Ala-Ala-Val-Asp-Thr-Ser-Ser-Glu-Ile-Thr-Thr-Lys-Asp-Leu-Lys-Glu-Lys-Lys-Glu-Val-Val-Glu-Glu-Ala-Glu-Asn-O; listed as Homo sapiens) [Tα1, naturally occurring polypeptide of 28 amino acid; supplied as purified sterile, lyophilized, acetylated polypeptide]
- chloride permeability of ΔF508 CFTR cells relative to control (WT control as 100%) ([1]; 100 ng/ml Tα1 for 24 hours, forskolin stimulation): approximately 70%
- ion channel activity compared to lumacaftor ([1]; 24 hours): similar
- Foxp3 expression (Treg) [2, 3]: increased
- Gata3 expression (Th2) [2, 3]: low
- Tbet expression (Th1) [2, 3]: increased
- Th17 transcription factor Rorc expression [2, 3]: decreased
- IFN-γ level (Th1) ([2]; lung homogenates): increased
- IL-4 level (Th2) ([2]; lung homogenates): low
- IL-10 level (Treg) ([2]; lung homogenates): increased
- IL-17A level (Th17) ([2]; lung homogenates, infected and Tα1-treated C57BL/6 and Cftr−/− mice): decreased
